Results published in patent US4633014A, “Substituted 3-hydrazinopropionates” (priority 1983, dated 1986).

Columns and labels:
[1] = test system: arrhythmia induced by an intravenous administration of calcium chloride; experiment: Antiarrhythmic activity on a model of arrhythmia induced by intravenous calcium chloride (antagonism to calcium) in mice; format: in vivo; settings: white mice, 20-40 minutes before
Protocol: The specific (antiarrhythmic) effect and acute toxicity were studied.
The antiarrhythmic activity of the compounds according to the present invention was studied on a model of arrhythmia induced by an intravenous administration of calcium chloride. In experiments on white mice of both sexes with a mass of 18-25 g narcotized by urethane (1,200 mg/kg intraperitoneally) ECG in the second standard lead was recorded. A 2% solution of calcium chloride was introduced into the tail vein at a constant rate (0.01 ml for 2 sec). The dose of calcium chloride causing arrhythmia and the dose causing the heart arrest were determined. In the test groups the test compounds were administered intraperitoneally 20-40 minutes before the beginning of the experiment.

in vivo = settings: mouse, in vivo, ip
Protocol: (§1) The study of the effect provided by the compounds according to the present invention on the cardio-vascular system was carried out in experiments on white mice. The specific (antiarrhythmic) effect and acute toxicity were studied.
(§2) The acute toxicity of the compounds according to the present invention was determined in experiments on white mice with a mass of 20-25 g. The test compounds were administered intraperitoneally in the form of aqueous solutions or suspensions in Twin-80. Observation over the test animals was effected for 10 days.

white mice = experiment: in vivo
Protocol: as §1, §2

## COC(=O)CCN(C(N)=O)N(C)C [I-1, 3-(2,2-Dimethyl-1-carbamoylhydrazino)-methylpropionate]
[1]; intraperitoneal dose 5 mg/kg
  Dose of calcium chloride causing arrythmia in animals under experiment: 118,5 mg/kg
  Dose of calcium chloride causing death in animals under experiment: 149,0 mg/kg
[1]; intraperitoneal dose 15 mg/kg
  Dose of calcium chloride causing arrythmia in animals under experiment: 124,4 mg/kg
  Dose of calcium chloride causing death in animals under experiment: 138,3 mg/kg
In vivo
  LD50 at 240 h: 2080 mg/kg
White mice; mouse, in vivo, ip, 14400 min
  Relative toxisity to quinidine: 13,3

## CNC(=O)N(CCC(=O)OC)N(C)C [I-2, 3-(2,2-Dimethyl-1-methylcarbamoylhydrazino)-methylpropionate]
[1]; intraperitoneal dose 5 mg/kg
  Dose of calcium chloride causing arrythmia in animals under experiment: 112,0 mg/kg
  Dose of calcium chloride causing death in animals under experiment: 128,5 mg/kg
[1]; intraperitoneal dose 15 mg/kg
  Dose of calcium chloride causing arrythmia in animals under experiment: 124,5 mg/kg
  Dose of calcium chloride causing death in animals under experiment: 140,6 mg/kg
In vivo
  LD50 at 240 h: 2300 mg/kg
White mice; mouse, in vivo, ip, 14400 min
  Relative toxisity to quinidine: 14,7

## COC(=O)CCN(C(=O)Nc1ccccc1)N(C)C [I-3, 3-(2,2-dimethyl-1-phenylcarbamoylhydrazino)-methylpropionate]
[1]; intraperitoneal dose 5 mg/kg
  Dose of calcium chloride causing arrythmia in animals under experiment: 86,7 mg/kg
  Dose of calcium chloride causing death in animals under experiment: 97,0 mg/kg
[1]; intraperitoneal dose 25 mg/kg
  Dose of calcium chloride causing arrythmia in animals under experiment: 124,7 mg/kg
  Dose of calcium chloride causing death in animals under experiment: 130,0 mg/kg
In vivo
  LD50 at 240 h: 1350 mg/kg
White mice; mouse, in vivo, ip, 14400 min
  Relative toxisity to quinidine: 8,6

## COC(=O)CCN(C(=O)Nc1ccc(NC(=O)N(CCC(=O)OC)N(C)C)cc1)N(C)C [I-4, 3-(2,2-dimethyl-1-p-/2-dimethylamino-2-methylpropionato-2'-yl-ureido-1-yl/anilinocarbanylhydrazino)-methylpropionate]
[1]; intraperitoneal dose 5 mg/kg
  Dose of calcium chloride causing arrythmia in animals under experiment: 86,0 mg/kg
  Dose of calcium chloride causing death in animals under experiment: 110,0 mg/kg
[1]; intraperitoneal dose 25 mg/kg
  Dose of calcium chloride causing arrythmia in animals under experiment: 103,7 mg/kg
  Dose of calcium chloride causing death in animals under experiment: 115,0 mg/kg
In vivo
  LD50 at 240 h: 8000 mg/kg
White mice; mouse, in vivo, ip, 14400 min
  Relative toxisity to quinidine: 51,3

## CNC(=S)N(CCC(=O)OC)N(C)C [I-5, 3-(2,2-dimethyl-1-methylthiocarbamoylhydrazino)methylpropionate]
[1]; intraperitoneal dose 5 mg/kg
  Dose of calcium chloride causing arrythmia in animals under experiment: 87,5 mg/kg
  Dose of calcium chloride causing death in animals under experiment: 100,5 mg/kg
[1]; intraperitoneal dose 25 mg/kg
  Dose of calcium chloride causing arrythmia in animals under experiment: 127,3 mg/kg
  Dose of calcium chloride causing death in animals under experiment: 131,4 mg/kg
In vivo
  LD50 at 240 h: 3950 mg/kg
White mice; mouse, in vivo, ip, 14400 min
  Relative toxisity to quinidine: 25,3

## C=CCNC(=S)N(CCC(=O)OC)N(C)C [I-6, 3-(2,2-dimethyl-1-allylthiocarbamoylhydrazino)methylpropionate]
[1]; intraperitoneal dose 5 mg/kg
  Dose of calcium chloride causing arrythmia in animals under experiment: 97,9 mg/kg
  Dose of calcium chloride causing death in animals under experiment: 110,4 mg/kg
[1]; intraperitoneal dose 25 mg/kg
  Dose of calcium chloride causing arrythmia in animals under experiment: 100,9 mg/kg
  Dose of calcium chloride causing death in animals under experiment: 113,7 mg/kg
In vivo
  LD50 at 240 h: 3200 mg/kg
White mice; mouse, in vivo, ip, 14400 min
  Relative toxisity to quinidine: 20,5

## COC(=O)CCN(C(=S)Nc1ccccc1)N(C)C [I-7, 3-(2,2-dimethyl-1-phenylthiocarbamoylhydrazino)methylpropionate]
[1]; intraperitoneal dose 5 mg/kg
  Dose of calcium chloride causing arrythmia in animals under experiment: 132 mg/kg
  Dose of calcium chloride causing death in animals under experiment: 135,6 mg/kg
[1]; intraperitoneal dose 15 mg/kg
  Dose of calcium chloride causing arrythmia in animals under experiment: 107,5 mg/kg
  Dose of calcium chloride causing death in animals under experiment: 138,0 mg/kg
[1]; intraperitoneal dose 25 mg/kg
  Dose of calcium chloride causing arrythmia in animals under experiment: 90,0 mg/kg
  Dose of calcium chloride causing death in animals under experiment: 113,0 mg/kg
In vivo
  LD50 at 240 h: 2100 mg/kg
White mice; mouse, in vivo, ip, 14400 min
  Relative toxisity to quinidine: 13,4

## CCOC(=O)CCN(C(=O)NC)N(C)C [I-8, 3-(2,2-dimethyl-1-methylcarbamoylhydrazino)-ethylpropionate]
[1]; intraperitoneal dose 5 mg/kg
  Dose of calcium chloride causing arrythmia in animals under experiment: 99,4 mg/kg
  Dose of calcium chloride causing death in animals under experiment: 112,0 mg/kg
[1]; intraperitoneal dose 25 mg/kg
  Dose of calcium chloride causing arrythmia in animals under experiment: 123,2 mg/kg
  Dose of calcium chloride causing death in animals under experiment: 124,6 mg/kg
In vivo
  LD50 at 240 h: 1870 mg/kg
White mice; mouse, in vivo, ip, 14400 min
  Relative toxisity to quinidine: 11,9

## C=CCNC(=S)N(CCC(=O)OCC)N(C)C [I-9, 3-(2,2-dimethyl-1-allylthiocarbamoylhydrazino)ethylpropionate]
[1]; intraperitoneal dose 5 mg/kg
  Dose of calcium chloride causing arrythmia in animals under experiment: 91,8 mg/kg
  Dose of calcium chloride causing death in animals under experiment: 107 mg/kg
[1]; intraperitoneal dose 25 mg/kg
  Dose of calcium chloride causing arrythmia in animals under experiment: 104,8 mg/kg
  Dose of calcium chloride causing death in animals under experiment: 116,5 mg/kg
In vivo
  LD50 at 240 h: 1780 mg/kg
White mice; mouse, in vivo, ip, 14400 min
  Relative toxisity to quinidine: 11,4

## CCOC(=O)CCN(C(=S)Nc1ccccc1)N(C)C [I-10, 3-(2,2-dimethyl-1-phenylthiocarbamoylhydrazino)ethylpropionate]
[1]; intraperitoneal dose 5 mg/kg
  Dose of calcium chloride causing arrythmia in animals under experiment: 102,0 mg/kg
  Dose of calcium chloride causing death in animals under experiment: 108,8 mg/kg
[1]; intraperitoneal dose 15 mg/kg
  Dose of calcium chloride causing arrythmia in animals under experiment: 115,8 mg/kg
  Dose of calcium chloride causing death in animals under experiment: 125,7 mg/kg
In vivo
  LD50 at 240 h: 1800 mg/kg
White mice; mouse, in vivo, ip, 14400 min
  Relative toxisity to quinidine: 11,5

## COC(=O)C(C)CN(C(N)=O)N(C)C (centres unmarked) [I-11, 3-(2,2-dimethyl-1-carbamoylhydrazino)-2-methyl-methylpropionate]
[1]; intraperitoneal dose 5 mg/kg
  Dose of calcium chloride causing arrythmia in animals under experiment: 100,3 mg/kg
  Dose of calcium chloride causing death in animals under experiment: 147 mg/kg
[1]; intraperitoneal dose 15 mg/kg
  Dose of calcium chloride causing arrythmia in animals under experiment: 130,7 mg/kg
  Dose of calcium chloride causing death in animals under experiment: 136,3 mg/kg
In vivo
  LD50 at 240 h: 1850 mg/kg
White mice; mouse, in vivo, ip, 14400 min
  Relative toxisity to quinidine: 11,8

## CNC(=O)N(CC(C)C(=O)OC)N(C)C (centres unmarked) [I-12, 3-(2,2-dimethyl-1-methylcarbamoylhydrazino)-2-methyl-methylpropionate]
[1]; intraperitoneal dose 5 mg/kg
  Dose of calcium chloride causing arrythmia in animals under experiment: 106,0 mg/kg
  Dose of calcium chloride causing death in animals under experiment: 110,0 mg/kg
[1]; intraperitoneal dose 15 mg/kg
  Dose of calcium chloride causing arrythmia in animals under experiment: 128,3 mg/kg
  Dose of calcium chloride causing death in animals under experiment: 130,5 mg/kg
In vivo
  LD50 at 240 h: 1270 mg/kg
White mice; mouse, in vivo, ip, 14400 min
  Relative toxisity to quinidine: 8,1

## C=CCNC(=S)N(CC(C)C(=O)OC)N(C)C (centres unmarked) [I-13]
[1]; intraperitoneal dose 5 mg/kg
  Dose of calcium chloride causing arrythmia in animals under experiment: 117,3 mg/kg
  Dose of calcium chloride causing death in animals under experiment: 136,5 mg/kg
[1]; intraperitoneal dose 15 mg/kg
  Dose of calcium chloride causing arrythmia in animals under experiment: 126,0 mg/kg
  Dose of calcium chloride causing death in animals under experiment: 138,0 mg/kg
In vivo
  LD50 at 240 h: 1230 mg/kg
White mice; mouse, in vivo, ip, 14400 min
  Relative toxisity to quinidine: 7,8

## COC(=O)C(C)CN(C(=S)Nc1ccccc1)N(C)C (centres unmarked) [I-14]
[1]; intraperitoneal dose 5 mg/kg
  Dose of calcium chloride causing arrythmia in animals under experiment: 96,4 mg/kg
  Dose of calcium chloride causing death in animals under experiment: 114,1 mg/kg
[1]; intraperitoneal dose 15 mg/kg
  Dose of calcium chloride causing arrythmia in animals under experiment: 85 mg/kg
  Dose of calcium chloride causing death in animals under experiment: 101,0 mg/kg
In vivo
  LD50 at 240 h: 1960 mg/kg
White mice; mouse, in vivo, ip, 14400 min
  Relative toxisity to quinidine: 12,5

## CNC(=O)N(CCC(N)=O)N(C)C [I-15, 3-(2,2-dimethyl-1-methylcarbamoylhydrazino)-propionamide]
[1]; intraperitoneal dose 5 mg/kg
  Dose of calcium chloride causing arrythmia in animals under experiment: 97,8 mg/kg
  Dose of calcium chloride causing death in animals under experiment: 109 mg/kg
[1]; intraperitoneal dose 15 mg/kg
  Dose of calcium chloride causing arrythmia in animals under experiment: 100,7 mg/kg
  Dose of calcium chloride causing death in animals under experiment: 108,5 mg/kg
In vivo
  LD50 at 240 h: 3600 mg/kg
White mice; mouse, in vivo, ip, 14400 min
  Relative toxisity to quinidine: 23

## CN(C)N(CCC(N)=O)C(=O)Nc1ccccc1 [I-16, 3-(2,2-dimethylamino-1-phenylcarbamoylhydrazino)propionamide]
[1]; intraperitoneal dose 5 mg/kg
  Dose of calcium chloride causing arrythmia in animals under experiment: 92,0 mg/kg
  Dose of calcium chloride causing death in animals under experiment: 115,3 mg/kg
[1]; intraperitoneal dose 15 mg/kg
  Dose of calcium chloride causing arrythmia in animals under experiment: 102,5 mg/kg
  Dose of calcium chloride causing death in animals under experiment: 125,0 mg/kg
In vivo
  LD50 at 240 h: 925 mg/kg
White mice; white mice, intraperitoneal, relative to quinidine
  Relative toxisity to quinidine: 5,9

## CNC(=S)N(CCC(N)=O)N(C)C [I-17]
[1]; intraperitoneal dose 5 mg/kg
  Dose of calcium chloride causing arrythmia in animals under experiment: 87,5 mg/kg
  Dose of calcium chloride causing death in animals under experiment: 138 mg/kg
[1]; intraperitoneal dose 15 mg/kg
  Dose of calcium chloride causing arrythmia in animals under experiment: 102,0 mg/kg
  Dose of calcium chloride causing death in animals under experiment: 115 mg/kg
In vivo
  LD50 at 240 h: 2850 mg/kg
White mice; mouse, in vivo, ip, 14400 min
  Relative toxisity to quinidine: 18,3

## C=CCNC(=S)N(CCC(N)=O)N(C)C [I-18]
[1]; intraperitoneal dose 5 mg/kg
  Dose of calcium chloride causing arrythmia in animals under experiment: 127 mg/kg
  Dose of calcium chloride causing death in animals under experiment: 160,5 mg/kg
[1]; intraperitoneal dose 15 mg/kg
  Dose of calcium chloride causing arrythmia in animals under experiment: 153 mg/kg
  Dose of calcium chloride causing death in animals under experiment: 168 mg/kg
In vivo
  LD50 at 240 h: 2900 mg/kg
White mice; mouse, in vivo, ip, 14400 min
  Relative toxisity to quinidine: 18,6

## CN(C)N(CCC(N)=O)C(=S)Nc1ccccc1 [I-19, 3-(2,2-dimethyl-1-phenylthiocarbamoylhydrazino)propionamide]
[1]; intraperitoneal dose 5 mg/kg
  Dose of calcium chloride causing arrythmia in animals under experiment: 98,3 mg/kg
  Dose of calcium chloride causing death in animals under experiment: 112,0 mg/kg
[1]; intraperitoneal dose 15 mg/kg
  Dose of calcium chloride causing arrythmia in animals under experiment: 110,5 mg/kg
  Dose of calcium chloride causing death in animals under experiment: 130,0 mg/kg
In vivo
  LD50 at 240 h: 1750 mg/kg
White mice; mouse, in vivo, ip, 14400 min
  Relative toxisity to quinidine: 11,2

## CC(CN(C(=S)Nc1ccccc1)N(C)C)C(N)=O (centres unmarked) [I-20, 3-(2,2-dimethyl-1-phenylthiocarbamoylhydrazino)2-methylpropionamide]
[1]; intraperitoneal dose 5 mg/kg
  Dose of calcium chloride causing arrythmia in animals under experiment: 102 mg/kg
  Dose of calcium chloride causing death in animals under experiment: 123 mg/kg
[1]; intraperitoneal dose 15 mg/kg
  Dose of calcium chloride causing arrythmia in animals under experiment: 106,4 mg/kg
  Dose of calcium chloride causing death in animals under experiment: 118,6 mg/kg
In vivo
  LD50 at 240 h: 1340 mg/kg
White mice; mouse, in vivo, ip, 14400 min
  Relative toxisity to quinidine: 8,6
